According to article PMC12574689, “Synthesis of novel SRPK1-targeting hybrid compounds incorporating antimetabolites for cancer therapy” (RSC Medicinal Chemistry, 2025):

How the values were obtained:
[1] = tested on: HeLa; assay: MTT viability assay, HeLa; format: cell-based; conditions: Homo sapiens, 48 h treatment, mean of three independent experiments
Protocol: (§1) To evaluate the cytotoxic effects of the hybrid compounds geo15 and geo140, we performed MTT assays on HeLa, K562, A549, HepG2, HT-29 and Caco2 cancer cell lines, as well as primary intestinal subepithelial myofibroblasts (SEMFs).
(§2) HeLa, K562, HT-29, Caco-2, HepG2 and A549 cancer cell lines were obtained from the American Type Culture Collection (ATCC). All cell lines were cultured at 37 °C with 5% CO2. HeLa, Caco-2, HepG2 and A549 cells were maintained in Dulbecco's modified Eagle medium (DMEM, PAN Biotech) supplemented with 10% FBS and antibiotics/antimycotics, while K562 cells were maintained in RPMI and HT-29 cells in McCoy's 5a medium (Biosera) with the same supplements.
(§3) All cells were seeded in 96-well plates (Corning, New York, USA) at density of 10^4 cells per well, except HeLa that were seeded at destiny of 2 × 10^3. After 24 hours, the cells were treated with increasing concentrations of the inhibitory compounds for 48 hours. Cytotoxic activity of parent and conjugate compounds was assessed by 3-(4,5-dimethylthiazol-2-yl)-2,5-diphenyltetrazolium bromide (MTT) assay, according to manufacturer's instructions. In brief, 100 μl of growth medium containing 0.5 mg ml^−1 MTT (Sigma-Aldrich, Darmstadt, Germany) were added to each well of a 96-well plate and incubated at 37 °C and 5% CO2 for 2 hours until the formation of visible intracellular purple crystals. Then, MTT-supplemented growth medium was discarded and 100 μl dimethyl sulfoxide (Sigma-Aldrich, Darmstadt, Germany) were added per well for solubilization of dye. Absorbance was then measured on a microplate reader (Diareader EL 800; Dialab, Wr. Neudorf, Austria) at 570 nm with a reference wavelength at 660 nm.

[2] = tested on: K562; assay: MTT viability assay, K562; format: cell-based; conditions: Homo sapiens, 48 h treatment, mean of three independent experiments
Protocol: as §1, §2, §3

[3] = tested on: A549; assay: MTT viability assay, A549; format: cell-based; conditions: Homo sapiens, 48 h treatment, mean of three independent experiments
Protocol: as §1, §2, §3

[4] = tested on: HepG2; assay: MTT viability assay, HepG2; format: cell-based; conditions: Homo sapiens, 48 h treatment, mean of three independent experiments
Protocol: as §1, §2, §3

[5] = tested on: HT-29; assay: MTT viability assay, HT-29; format: cell-based; conditions: Homo sapiens; HT-29, MTT, 48 h treatment, mean of three independent experiments
Protocol: as §1, §2, §3

[6] = tested on: Caco2; assay: MTT viability assay, Caco2; format: cell-based; conditions: Homo sapiens, Caco-2, 48 h treatment, mean of three independent experiments
Protocol: as §1, §2, §3

[7] = tested on: primary intestinal subepithelial myofibroblasts (SEMFs); assay: MTT viability assay, primary SEMFs; format: cell-based; conditions: Homo sapiens, 48 h treatment, mean of three independent experiments
Source text: as §1
Intestinal myofibroblast isolation: primary intestinal subepithelial myofibroblasts were isolated from freshly collected intestinal mucosa biopsies as previously described,[28] from healthy individuals undergoing endoscopy for reasons of surveillance, after obtaining written and informed consent. Briefly, 4–6 pieces of intestinal tissue were collected in ice-cold Hank's Balanced Salt Solution (HBSS; Biosera, Nuaille, France) containing Ca^2+/Mg^2+ supplemented with P/S/A/G: penicillin (100 U ml^−1), streptomycin (100 μg ml^−1), amphotericin (2.5 μg ml^−1) and gentamycin (50 μg ml^−1), followed by 15 minute washes with HBSS with and without Ca^2+/Mg^2+ to remove possible contaminants. Next tissue was de-epithelialized by a 15 minute incubation in HBSS without Ca^2+/Mg^2+ containing 1 mM dithiothreitol (DTT, Sigma-Aldrich, Darmstadt, Germany) followed by 3× 30 minute washes in HBSS supplemented with 1 mM ethylenediaminetetraacetic acid (EDTA, Sigma-Aldrich, Darmstadt, Germany) at 37 °C. Tissue was cultured in RPMI 1640 (PAN Biotech, Aidenbach, Germany) supplemented with 10% fetal bovine serum (FBS; Biosera, Nuaille, France) and P/S/A/G for as long as 30 days at 37 °C and 5% CO2. After colonies of myofibroblasts reached 30% confluency, cells were detached and consequently cultured in 75 cm^2 flasks in Dulbecco's modified Eagle medium (DMEM, 4.5 g l^−1 glucose; PAN Biotech, Aidenbach, Germany) with 10% fetal bovine serum and P/S/A.
as §3

[8] = biological target: T1, GST-SRPK1 (Homo sapiens, UniProt Q96SB4); assay: In vitro kinase assay, GST-SRPK1; format: biochemical; conditions: substrate GST-LBRNt(62–92), 25 μM ATP
T1 construct: made in house; host or cells: bacteria (pGEX-2T vector)
T1 sequence (Q96SB4 whole entry): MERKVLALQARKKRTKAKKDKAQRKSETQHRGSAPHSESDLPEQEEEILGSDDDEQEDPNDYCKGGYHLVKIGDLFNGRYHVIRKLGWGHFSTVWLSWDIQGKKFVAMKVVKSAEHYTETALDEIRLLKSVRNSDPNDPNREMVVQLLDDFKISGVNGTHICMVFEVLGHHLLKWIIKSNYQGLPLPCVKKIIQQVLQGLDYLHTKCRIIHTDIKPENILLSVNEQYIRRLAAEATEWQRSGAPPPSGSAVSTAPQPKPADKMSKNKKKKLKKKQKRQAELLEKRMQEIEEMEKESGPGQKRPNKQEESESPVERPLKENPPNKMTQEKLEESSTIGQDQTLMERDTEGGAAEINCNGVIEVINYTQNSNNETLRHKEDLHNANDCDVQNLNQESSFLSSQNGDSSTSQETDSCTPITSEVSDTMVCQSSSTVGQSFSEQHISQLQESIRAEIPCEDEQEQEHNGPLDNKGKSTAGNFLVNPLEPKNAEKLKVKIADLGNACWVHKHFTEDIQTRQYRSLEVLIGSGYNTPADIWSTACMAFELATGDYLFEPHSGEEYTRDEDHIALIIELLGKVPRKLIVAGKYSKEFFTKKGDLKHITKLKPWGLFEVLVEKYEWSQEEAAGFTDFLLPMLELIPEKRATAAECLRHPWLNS
Protocol: (§4) The inhibitory activity of geo140 and JH-VII-139-1 against SRPK1 and SRPK2 was assessed using in vitro kinase assays (Fig. 5). […] The IC50 values summarized in Panel E indicate that both JH-VII-139-1 and the hybrid compound geo140 act as effective inhibitors of SRPK-mediated phosphorylation, with however, differential selectivity between SRPK1 and SRPK2.
(§5) Fig. 5 Phosphorylation of 1 μg GST-LBRNt(62–92) by 0.5 μg GST-SRPK1 or 0.5 μg GST-SRPK2 in the presence of increasing concentrations of geo140 (A and B, respectively) or in the presence of increasing concentrations of JH-VII-139-1 (C and D, respectively). Panel C was taken from a previous publication of the authors.[2] The samples were analyzed by SDS-PAGE on 12% gels, stained with Coomassie blue and autoradiographed. Only the relevant part of the autorad corresponding to the phosphorylated substrate is shown. E. IC50 values of geo140 and JH-VII-139-1 against GST-SRPK1 and GST-SRPK2.
(§6) Human SRPK1, SRPK2, and a turkey LBR N-terminal fragment (amino acids 62–92; LBRNt(62–92)) were expressed as GST-fusion proteins in bacteria using the pGEX-2T vector (Amersham Biosciences) as previously described.[15] […] Phosphorylated GST-LBRNt(62–92) was detected by autoradiography (Super RX film, Fujifilm). Incorporated radioactivity was quantified by scintillation counting of the excised SDS-PAGE gel bands.

[9] = biological target: T2, GST-SRPK2 (Homo sapiens, UniProt P78362); assay: In vitro kinase assay, GST-SRPK2; format: biochemical; conditions: substrate GST-LBRNt(62–92), 25 μM ATP
T2 construct: made in house; host or cells: bacteria (pGEX-2T vector)
T2 sequence (P78362 whole entry): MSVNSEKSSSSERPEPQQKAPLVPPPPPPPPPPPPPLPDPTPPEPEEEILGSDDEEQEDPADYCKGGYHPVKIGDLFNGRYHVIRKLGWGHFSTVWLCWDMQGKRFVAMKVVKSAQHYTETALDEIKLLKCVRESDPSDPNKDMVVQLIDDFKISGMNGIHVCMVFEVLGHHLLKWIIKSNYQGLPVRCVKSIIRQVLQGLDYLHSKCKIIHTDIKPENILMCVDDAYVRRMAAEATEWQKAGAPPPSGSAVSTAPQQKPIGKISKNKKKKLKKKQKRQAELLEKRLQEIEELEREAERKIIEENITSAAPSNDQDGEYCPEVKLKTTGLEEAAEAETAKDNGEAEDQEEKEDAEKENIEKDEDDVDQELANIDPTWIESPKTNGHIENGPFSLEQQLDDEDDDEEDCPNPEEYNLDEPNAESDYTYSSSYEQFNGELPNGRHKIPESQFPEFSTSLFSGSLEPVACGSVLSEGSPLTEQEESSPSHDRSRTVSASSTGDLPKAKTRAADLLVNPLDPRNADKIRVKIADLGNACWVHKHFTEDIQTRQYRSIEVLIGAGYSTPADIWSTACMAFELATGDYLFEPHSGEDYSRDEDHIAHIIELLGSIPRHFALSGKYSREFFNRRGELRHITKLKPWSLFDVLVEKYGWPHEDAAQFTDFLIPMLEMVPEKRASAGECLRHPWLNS
Protocol: as §4, §5, §6

[10] = Chemostability in pH 5.2 and 7.4 buffers and DMEM (LC-ESI-MS); format: physicochemical; conditions: 37 °C
Protocol: (§7) The stability of SRPK1-targeting conjugates geo15 and geo140 was assessed at pH 5.2 and 7.4, as well as in cell culture medium (DMEM) and human plasma. All experiments were conducted at 37 °C, with samples analysed by LC-ESI-MS at specific time points. […] The half-lives of the conjugates ranged from several minutes to several hours, is discussed below.
(§8) Chemical stability experiments were conducted using LC-MS Method 4, except for the
(§9) pH stability studies of compound geo15, which were performed using LC-MS Method
(§10) 3. Representative chromatograms are provided for each experiment. geo15:
(§11) Figure S16. Chemical stability assay LC chromatograms for geo15.
(§12) Figure S17. Chemical stability assay LC chromatograms for geo140.

[11] = Stability in human plasma (LC-ESI-MS); format: in vitro ADME; conditions: 37 °C
Protocol: as §7, §8, §9, §10, §11, §12

[12] = tested on: SRPK1 in HeLa cells; assay: Immunofluorescence of SRPK1 subcellular localization; format: cell-based
Protocol: In a following step the effect of geo140 was tested on the subcellular distribution of SRPK1 in HeLa cells. To address this issue, a series of immunofluorescence experiments was performed to assess the effect of geo140, relative to its parent compounds, JH-VII-139-1 and 5-FU on SRPK1 localization.
Fig. 6 Fluorescent patterns of SRPK1 in HeLa cells treated with JH-VII-139-1, 5-FU, and geo140 (for the indicated concentrations and time periods). SRPK1 was detected using an anti-SRPK1 monoclonal antibody (Alexa488-green fluorescence) while nuclei were stained with PI (red fluorescence). Scale bar: 10 μm.
HeLa cells (3 × 10^4 cells per well) were seeded on glass coverslips in 24-well plates. After 24 hours, cells were treated with the indicated concentrations of inhibitors for 24 or 48 hours. Following incubation, samples were fixed with 4% paraformaldehyde in PBS for 20 minutes at room temperature. Paraformaldehyde was quenched with 100 mM Tris-HCl (pH 7.5), and cells were permeabilized with 0.2% Triton X-100 in PBS for 10 minutes. Blocking was performed with 0.5% fish skin gelatin in PBS. Cells were then probed with a primary antibody (anti-SRPK1 monoclonal, 1 : 100 dilution, BD Biosciences, San Jose, CA, USA) and a secondary antibody (Alexa488-conjugated goat anti-mouse, 1 : 400 dilution, Molecular Probes, Eugene, OR, USA), followed by DNA staining with propidium iodide, as previously described.[25] Coverslips were mounted with mounting medium (0.01% p-phenylenediamine and 50% glycerol in PBS) and visualized using a Nikon confocal microscope with EZ-C1 3.20 software.

[13] = tested on: HeLa cells; assay: Inverted phase-contrast microscopy of treated cells; format: cell-based; conditions: 10 μM, phase-contrast microscope
Protocol: A similar morphology of geo140-treated cells was also observed using an inverted phase-contrast microscope.
Fig. 7 Microscopic view of control HeLa cells and treated with 10 μM geo140, taken at 10× or 40× magnification as indicated, using an inverted phase-contrast microscope.

| Compound | EC50 [1] [µM] | EC50 [2] [µM] | EC50 [3] [µM] | EC50 [4] [µM] | EC50 [5] [µM] | EC50 [6] [µM] | EC50 [7] [µM] | half-life ([10]; pH 7.4 buffer) [h] | also measured |
| --- | --- | --- | --- | --- | --- | --- | --- | --- | --- |
| CCc1cc2c(cc1-c1ccn(C(=O)NCCOCCOCCNC(=O)Cn3c(=O)[nH]cc(F)c3=O)n1)C(C)(C)c1[nH]c3cc(C#N)ccc3c1C2=O [geo140, (JH-VII-139-1)–(5-FU) conjugate] | 11.7 | 13.7 | > 50 | 27.1 | 19.3 | 31.2 | 21.5 | > 48 | IC50 [8]: 0.0221 µM; IC50 [9]: 7.9 µM; reduction in initial concentration ([10]; DMEM, after 24 hours): 10–20%; half-life ([10]; pH 5.2 buffer): > 48 h; reduction in initial concentration ([11]; after 24 hours): 10–20%; SRPK1 distribution in interphase cells [12]: SRPK1 retained a cytoplasmic distribution similar to that seen in untreated controls; number of mitotic cells ([12]; immunofluorescence): significant increase in the number of mitotic cells; mitotic cells (round shape, distinct chromosomal structures) [13]: significant increase in mitotic cells |
| COc1cc(/C=C(\C#N)C(=O)Nc2nnc(C(F)(F)F)s2)ccc1OCc1ccc(NC(=O)CNC(=O)OC[C@H]2O[C@@H](n3ccc(N)nc3=O)C(F)(F)[C@@H]2O)cc1 [geo15] | 33.1 | > 50 | > 50 | > 50 | 38.4 | > 50 | > 50 | > 48 | half-life ([10]; DMEM cell culture medium, DMEM): > 48 h; detection of retro-Knoevenagel reaction product 21 ([10]; DMEM): not observed; concentration of the conjugate remaining ([10]; during the 24 hour period, overall stability profile (all media)): above 50%; detection of retro-Knoevenagel reaction product 21 ([10]; pH buffer media): small percentage; release of SRPIN803 via the 1,6-elimination mechanism ([10]; stability media): no release of SRPIN803; detection of retro-Knoevenagel reaction product 21 [11]: not observed; half-life [11]: > 48 h |
| O=c1[nH]cc(F)c(=O)[nH]1 [5-FU, 5-fluorouracil, reference compound] | 25.7 | > 50 | 15.2 | > 50 | 3.62 | > 50 | > 50 | – | effect on SRPK1 subcellular localization ([12]; 20 μM, 24 h): more diffuse SRPK1 staining pattern, with some nuclear translocation of the kinase; effect on SRPK1 subcellular localization ([12]; 48 h): almost complete nuclear translocation of SRPK1 |
| Nc1ccn([C@@H]2O[C@H](CO)[C@@H](O)C2(F)F)c(=O)n1 [Gemcitabine, gemcitabine, reference compound] | 6.7 | > 50 | > 50 | 31.4 | 28.7 | > 50 | > 50 | – | – |
